Here are results for 2 molecules from patent US20090068059A1, “METHOD OF PREVENTING HYDROGEN SULFIDE ODOR GENERATION IN AN AQUEOUS MEDIUM” (priority 2007, published 2009).

Broadly, the % Inhibition is the percentage by which the read-out fell short of the control. Low readings indicate a response near the control, high ones a response far below the control. As a reminder, the inhibition is the change of the read-out against control, counted positive when it falls.

In this test the test system is sulfate reducing bacteria (SRB). The test is described as follows: Serum bottle test: control of H2S generation and sulfate reducing bacteria in synthetic nutrient medium. The format is cell-based. How it is done:
The test protocol was as follows: 100 mL serum bottles were filled with synthetic nutrient medium, then stoppered, capped, and autoclaved, and allowed to cool to at least 35 ° C. Using a 1 mL syringe with needle, the treatment was added at desired dosages to prepared serum bottles (triplicates of each dosage). No treatment was added for baseline controls. At least 6 baseline serum bottles were used. Using a 1 mL syringe with needle, 0.1 mL of prepared culture was added to each serum bottle. Next, a 10^10 cells/ml concentration of the sulfate reducers was prepared (using autoclaved synthetic nutrient medium) inside an anaerobic chamber. Using a 1 ml syringe with needle, 0.1 ml of the prepared sulfate reducers culture was added to each serum bottle. The bottles were then incubated at the desired temperature. The baseline dissolved sulfide levels were then measured to determine if the samples were ready for efficacy analysis. Using a 30 mL syringe with needle, 30 mL of sample was removed from each serum bottle. About 25 mL of the sample was added to a 30 mL bottle containing 0.125 mL zinc acetate solution, followed by adding 1 mL of 1N NaOH. The sulfide in the fixed sample was then measured. The remaining 5 mL of sample in the syringe was used for pH determination.

Setting [1] is: H2S generation, inhibitor concentration 1 ppm.
Setting [2] is: H2S generation, inhibitor concentration 2.5 ppm.
The mark [3] stands for this setting: H2S generation, inhibitor concentration 5 ppm.
Where [4] appears, read: inhibitor concentration 2.5 ppm.
[5] abbreviates: inhibitor concentration 100 ppm.

The structures appear in SMILES notation. Where “and” joins values, the source holds several entries; their conditions need not be identical. Equal values may be shown once. Where a name gives a salt, the structure may show the parent alone.

With `N=C(NCCCCCCNC(=N)NC(=N)Nc1ccc(Cl)cc1)NC(=N)Nc1ccc(Cl)cc1.O=C(O)[C@H](O)[C@@H](O)[C@H](O)[C@H](O)CO.O=C(O)[C@H](O)[C@@H](O)[C@H](O)[C@H](O)CO` [Chlorhexidine digluconate], the “% Inhibition” value by setting is: under setting [1], 100%; under setting [2], 100%; under setting [3], 100%. For the same molecule, the “H2S concentration (ppm)” value is, setting by setting: (inhibitor concentration 1 ppm) 0 ppm; under setting [4], 0 ppm; (inhibitor concentration 5 ppm) 0 ppm. Also, the “% H2S Inhibition” value runs as follows: (inhibitor concentration 25 ppm) 99%; (inhibitor concentration 50 ppm) 99%; under setting [5], 99% and 100%.

`[H]/N=C(\N/C(=N/[H])NCCCCCCNC(=N)NC(=N)Nc1ccc(Cl)cc1)Nc1ccc(Cl)cc1` [Chlorhexidine dihydrochloride]: the inhibition at 1 ppm under setting [1] was determined as 96%. Moreover, the “% Inhibition” value (H2S generation, inhibitor concentration 1 ppm, dihydrochloride) is 98% and 95%. The same molecule had an inhibition at 2.5 ppm under setting [2] of 100%. This molecule had an inhibition at 5 ppm under setting [3] of 100%. Further, the “H2S concentration (ppm)” value is given as 0 ppm under setting [4] and 0 ppm (inhibitor concentration 5 ppm). For the same molecule, 25 ppm produced 99% inhibition (inhibitor concentration 25 ppm). Also, for the setting “inhibitor concentration 50 ppm”, the inhibition at 50 ppm worked out at 99%. Moreover, under setting [5], the inhibition at 100 ppm is 100%.
